Biological target: h5-HT2c (vsv) (Homo sapiens, UniProt P28335, I156V/I160V/N158S)
Assay: cell-based

Sequence of h5-HT2c (vsv) (P28335 33-458 I156V/N158S/I160V limits assumed): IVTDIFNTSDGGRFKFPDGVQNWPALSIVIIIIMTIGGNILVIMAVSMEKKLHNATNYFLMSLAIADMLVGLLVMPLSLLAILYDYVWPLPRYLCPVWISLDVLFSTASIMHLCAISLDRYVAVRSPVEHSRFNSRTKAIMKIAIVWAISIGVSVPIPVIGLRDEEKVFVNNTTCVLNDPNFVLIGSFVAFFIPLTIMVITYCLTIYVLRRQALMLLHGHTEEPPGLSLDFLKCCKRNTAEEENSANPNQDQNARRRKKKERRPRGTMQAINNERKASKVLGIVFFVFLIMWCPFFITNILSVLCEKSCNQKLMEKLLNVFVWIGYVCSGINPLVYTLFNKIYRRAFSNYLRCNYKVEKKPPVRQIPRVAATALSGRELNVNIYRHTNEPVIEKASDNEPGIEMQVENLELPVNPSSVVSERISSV

SMILES	EC50 [nM]
CC(C)C1CNCCc2ccc(N3CCCCC3)nc21 (stereo not drawn)	65.4
CCN(C)c1ccc2c(n1)CCNCC2	18
CC(C)c1ccc2c(n1)C(C)CNCC2 (stereo not drawn)	295
c1cc2c(nc1N1CCCOCC1)CCNCC2	10.5
Clc1cc2c(nc1N1CCCOCC1)CCNCC2	67.8
O=C1CCN(c2ccc3c(n2)CCNCC3)CC1	299
CC1CNCCc2ccc(N3CCCCC3)nc21 (stereo not drawn)	13.1
CC(C)N(C)c1ccc2c(n1)CCNCC2	85.4
CC1CNCCc2ccc(N3CCC(F)CC3)nc21 (stereo not drawn)	13.6
Clc1cc2c(nc1N1CCOCC1)CCNCC2	176
CC(C)(C)c1ccc2c(n1)CCNCC2	106
COc1nc2c(cc1Br)CCNCC2	64.1
c1cc2c(nc1N1C3CCCC1CC3)CCNCC2	138
c1cc2c(nc1N1CCCNCC1)CCNCC2	262
CCC1CNCCc2ccc(N3CCOCC3)nc21 (stereo not drawn)	101
C[C@@H]1CNCCc2ccc(N3CCOCC3)nc21	58.1
FC1(F)CCN(c2ccc3c(n2)CCNCC3)CC1	11.4
CCN(C)c1nc2c(cc1Br)CCNCC2	100
FC1CCN(c2ccc3c(n2)CCNCC3)CC1	7.9
c1cc2c(nc1N1CCOCC1)CCNCC2	63.9
C=C(C)c1ccc2c(n1)CCNCC2	79.1

SMILES	EC50 [nM]
CC1CNCCc2ccc(N3CCCOCC3)nc21 (stereo not drawn)	21.7
CCN(C)c1ccc2c(n1)C(C)CNCC2 (stereo not drawn)	29.2
CCC1CNCCc2ccc(N(C)CC)nc21 (stereo not drawn)	35.9
c1cc2c(nc1N1CCCCCC1)CCNCC2	10.2
FC1CCN(c2nc3c(cc2Cl)CCNCC3)CC1	95.8
Clc1cc2c(nc1N1CCCCC1)CCNCC2	74.2
CC1CNCCc2ccc(N3CCC(F)(F)CC3)nc21 (stereo not drawn)	29.4
CCC1CNCCc2ccc(N3CCCCC3)nc21 (stereo not drawn)	16.4
CN(C)c1ccc2c(n1)CCNCC2	213
CC(C)C1CNCCc2ccc(N3CCCCCC3)nc21 (stereo not drawn)	139
c1cc2c(nc1N1CCSCC1)CCNCC2	2.3
CC1CNCCc2ccc(N3CCOCC3)nc21 (stereo not drawn)	47.7
CC1CNCCc2ccc(N3CCCCCC3)nc21 (stereo not drawn)	6.2
CCN(CC)c1ccc2c(n1)CCNCC2	77.3
CCN(C)c1ccc2c(n1)[C@H](C)CNCC2	8.3
Brc1cc2c(nc1N1CCCCC1)CCNCC2	192
FC1(F)CCCN(c2ccc3c(n2)CCNCC3)CC1	24
C[C@@H]1CNCCc2ccc(N3CCCCC3)nc21	2.1
c1cc2c(nc1N1CCC3(CC1)OCCO3)CCNCC2	290
[O-][S+]1CCN(c2ccc3c(n2)CCNCC3)CC1	5.1
c1cc2c(nc1N1CCCCC1)CCNCC2	10.6
